Data as given in patent publication US12492193B2, “Pyrazole derivatives for the treatment of cystic fibrosis” (Fondazione Istituto Italiano Di Tecnologia, priority 2017, dated 2025).

Molecular target: T1, mutant CFTR (Homo sapiens, UniProt P13569, DEL508-508)
T1 construct: expressed in transfected cells
Assay: Fluorescence (HS-YFP) assay for CFTR activity, corrector assay
Format: cell-based
Conditions: CFBE41o- and FRT cells with stable expression of mutant CFTR, 24 h compound treatment
Procedure, shortened: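 CFBE41o- or FRT cells stably expressing mutant CFTR and HS-YFP were exposed to compounds for 24 h (corrector mode), then stimulated 30 min at 37° C with forskolin (20 μM) plus genistein (50 μM). YFP quenching after 100 mM iodide injection; initial slope from exponential fit of final 10 s; EC50 reported.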

T1 sequence (P13569 with tags, fused parts or gaps DEL508-508): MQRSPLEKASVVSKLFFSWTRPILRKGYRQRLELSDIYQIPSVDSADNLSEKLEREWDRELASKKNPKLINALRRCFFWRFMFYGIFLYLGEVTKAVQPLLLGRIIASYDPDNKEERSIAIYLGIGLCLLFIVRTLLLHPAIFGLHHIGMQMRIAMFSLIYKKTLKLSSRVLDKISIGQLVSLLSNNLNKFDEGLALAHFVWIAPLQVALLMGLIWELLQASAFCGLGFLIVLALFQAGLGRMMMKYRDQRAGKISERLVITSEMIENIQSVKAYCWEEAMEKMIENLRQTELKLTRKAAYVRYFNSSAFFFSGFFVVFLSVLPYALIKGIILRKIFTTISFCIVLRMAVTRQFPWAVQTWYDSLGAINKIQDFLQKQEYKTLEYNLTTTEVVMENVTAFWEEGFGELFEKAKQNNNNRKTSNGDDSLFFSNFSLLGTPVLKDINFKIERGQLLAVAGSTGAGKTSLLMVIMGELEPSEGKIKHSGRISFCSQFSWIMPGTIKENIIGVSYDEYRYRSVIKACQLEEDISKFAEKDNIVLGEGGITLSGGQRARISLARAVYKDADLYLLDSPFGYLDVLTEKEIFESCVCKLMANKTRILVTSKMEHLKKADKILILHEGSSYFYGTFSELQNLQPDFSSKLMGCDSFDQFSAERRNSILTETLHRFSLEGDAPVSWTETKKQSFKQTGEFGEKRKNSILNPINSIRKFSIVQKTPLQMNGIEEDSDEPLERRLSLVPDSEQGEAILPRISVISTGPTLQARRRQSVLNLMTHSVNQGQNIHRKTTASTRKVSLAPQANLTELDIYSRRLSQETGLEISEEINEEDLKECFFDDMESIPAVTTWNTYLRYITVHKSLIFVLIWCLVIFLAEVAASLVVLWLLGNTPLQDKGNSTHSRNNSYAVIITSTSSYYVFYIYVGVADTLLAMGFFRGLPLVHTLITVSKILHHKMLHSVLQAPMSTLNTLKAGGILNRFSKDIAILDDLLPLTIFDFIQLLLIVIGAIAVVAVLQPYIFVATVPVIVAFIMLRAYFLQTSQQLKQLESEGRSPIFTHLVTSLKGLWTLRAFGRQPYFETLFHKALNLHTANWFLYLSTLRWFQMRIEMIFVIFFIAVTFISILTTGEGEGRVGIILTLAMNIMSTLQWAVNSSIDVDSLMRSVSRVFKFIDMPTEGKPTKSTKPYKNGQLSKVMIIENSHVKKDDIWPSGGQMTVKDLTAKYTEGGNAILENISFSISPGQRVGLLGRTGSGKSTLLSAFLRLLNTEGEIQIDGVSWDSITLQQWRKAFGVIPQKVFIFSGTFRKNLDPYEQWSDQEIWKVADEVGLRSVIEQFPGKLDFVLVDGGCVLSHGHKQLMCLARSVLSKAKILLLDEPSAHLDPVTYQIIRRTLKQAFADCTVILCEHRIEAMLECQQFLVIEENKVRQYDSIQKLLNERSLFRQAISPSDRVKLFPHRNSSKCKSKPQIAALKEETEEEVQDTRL

Structure (SMILES) | EC50
Cc1nn(-c2cccc(C(=O)Nc3cccc4c3OC(F)(F)O4)c2)c(C)c1Cl [Int-022, 3-(4-Chloro-3,5-dimethyl-pyrazol-1-yl)-N-(2,2-difluoro-1,3-benzodioxol-4-yl)benzamide] | 1 to 2 µM
Cc1nc2ccc(N(C)C(=O)c3cccc(-n4nc(C(F)(F)F)c(Cl)c4COc4ccc(C(=O)O)cc4)c3)cc2o1 [compound 233, 4-[[4-Chloro-2-[3-[methyl-(2-methyl-1,3-benzoxazol-6-yl)carbamoyl]phenyl]-5-(trifluoromethyl)pyrazol-3-yl]methoxy]benzoic acid] | < 1 µM
CN(C(=O)c1cccc(-n2nc(C(F)(F)F)c(Cl)c2COc2ccc(C(=O)O)cc2)c1)c1ccc2c(c1)OC(F)(F)O2 [compound 177, 4-[[4-chloro-2-[3-[(2,2-difluoro-1,3-benzodioxol-5-yl)-methyl-carbamoyl]phenyl]-5-(trifluoromethyl)pyrazol-3-yl]methoxy]benzoic acid] | < 1 µM
Cc1nc2ccc(NC(=O)c3cccc(-n4nc(C)c(Cl)c4C)c3)cc2o1 [Int-045, 3-(4-Chloro-3,5-dimethyl-pyrazol-1-yl)-N-(2-methyl-1,3-benzoxazol-6-yl)benzamide] | > 2 µM
Cc1nc2ccc(N(C)C(=O)c3cccc(-n4nc(C(F)(F)F)c(Cl)c4C)c3)cc2s1 [compound 149, 3-[4-Chloro-5-methyl-3-(trifluoromethyl)pyrazol-1-yl]-N-methyl-N-(2-methyl-1,3-benzothiazol-6-yl)benzamide] | 1 to 2 µM
Cc1nn(-c2cccc(C(=O)N(C)c3ccc4c(c3)OCO4)c2)c(C)c1C(=O)NCCO [compound 059, 1-[3-[1,3-Benzodioxol-5-yl(methyl)carbamoyl]phenyl]-N-(2-hydroxyethyl)-3,5-dimethyl-pyrazole-4-carboxamide] | > 2 µM
Cc1nc2cc(F)c(N(C)C(=O)c3cccc(-n4nc(C(F)(F)F)c(Cl)c4OCc4ccc(C(=O)O)cc4)c3)cc2o1 [compound 212, 4-[[4-Chloro-2-[3-[(5-fluoro-2-methyl-1,3-benzoxazol-6-yl)-methyl-carbamoyl]phenyl]-5-(trifluoromethyl)pyrazol-3-yl]oxymethyl]benzoic acid] | < 1 µM
CCN(C(=O)c1cccc(-n2nc(C)c(Cl)c2C)c1)c1ccc2c(c1)OC(F)(F)O2 [compound 019, 3-(4-Chloro-3,5-dimethyl-pyrazol-1-yl)-N-(2,2-difluoro-1,3-benzodioxol-5-yl)-N-ethyl-benzamide] | 1 to 2 µM
Cc1nc2cc(F)c(N(C)C(=O)c3cccc(-n4nc(C(F)(F)F)cc4OCc4ccc(C(=O)OC(C)(C)C)cc4)c3)cc2o1 [compound 189, Tert-butyl 4-[[2-[3-[(5-fluoro-2-methyl-1,3-benzoxazol-6-yl)-methyl-carbamoyl]phenyl]-5-(trifluoromethyl)pyrazol-3-yl]oxymethyl]benzoate] | < 1 µM
Cc1nc2cc(F)c(N(C)C(=O)c3cccc(-n4nc(C(F)(F)F)cc4OCc4ccc(C(=O)O)cc4)c3)cc2o1 [compound 196, 4-[[2-[3-[(5-Fluoro-2-methyl-1,3-benzoxazol-6-yl)-methyl-carbamoyl]phenyl]-5-(trifluoromethyl)pyrazol-3-yl]oxymethyl]benzoic acid] | < 1 µM
Cc1nc2ccc(NC(=O)c3cccc(-n4nc(C(F)(F)F)c(Cl)c4COc4ccc(C(=O)OC(C)(C)C)cc4)c3)cn2n1 [compound 173, tert-Butyl 4-[[4-chloro-2-[3-[(2-methyl-[1,2,4]triazolo[1,5-a]pyridin-6-yl)carbamoyl]phenyl]-5-(trifluoromethyl)pyrazol-3-yl]methoxy]benzoate] | > 2 µM
Cc1ccc(C(=O)N(C)c2ccc3c(c2)OCO3)cc1-n1nc(C)c(Cl)c1C [compound 082, N-(1,3-Benzodioxol-5-yl)-3-(4-chloro-3,5-dimethyl-pyrazol-1-yl)-N,4-dimethyl-benzamide] | 1 to 2 µM
Cc1nn(-c2cccc(C(=O)N(C)c3ccc4c(c3)OCO4)c2)c(C(C)(C)O)c1Cl [compound 115, N-(1,3-Benzodioxol-5-yl)-3-[4-chloro-5-(1-hydroxy-1-methyl-ethyl)-3-methyl-pyrazol-1-yl]-N-methyl-benzamide] | 1 to 2 µM
Cc1c(Cl)c(C(F)(F)F)nn1-c1cc(C(=O)N(C)c2ccc3c(c2)OCO3)ccn1 [compound 171, N-(1,3-Benzodioxol-5-yl)-2-[4-chloro-5-methyl-3-(trifluoromethyl)pyrazol-1-yl]-N-methyl-pyridine-4-carboxamide] | < 1 µM
Cc1nc2ccc(NC(=O)c3cccc(-n4nc(C(F)(F)F)c(Cl)c4C4CC4)c3)cc2o1 [Int-136, 3-[4-Chloro-5-cyclopropyl-3-(trifluoromethyl)pyrazol-1-yl]-N-(2-methyl-1,3-benzoxazol-6-yl)benzamide] | < 1 µM
Cc1nc2ccc(NC(=O)c3cccc(-n4nc(C(F)(F)F)c(Cl)c4C)c3)cc2s1 [Int-148, 3-[4-Chloro-5-methyl-3-(trifluoromethyl)pyrazol-1-yl]-N-(2-methyl-1,3-benzothiazol-6-yl)benzamide] | < 1 µM
CN(C(=O)c1cccc(-n2nc(C(F)(F)F)c(Cl)c2OC2CCN(C(=O)OC(C)(C)C)CC2)c1)c1ccc2c(c1)OCO2 [compound 157, Tert-butyl 4-[2-[3-[1,3-benzodioxol-5-yl(methyl)carbamoyl]phenyl]-4-chloro-5-(trifluoromethyl)pyrazol-3-yl]oxypiperidine-1-carboxylate] | < 1 µM

Structure (SMILES) | EC50
Cc1nn(-c2cccc(C(=O)N(C)c3ccc4c(c3)OCO4)c2)c(C(=O)N(C)C)c1Cl [compound 088, 2-[3-[1,3-benzodioxol-5-yl(methyl)carbamoyl]phenyl]-4-chloro-N,N,5-trimethyl-pyrazole-3-carboxamide] | > 2 µM
Cc1nn(-c2cccc(C(=O)Nc3ccc4c(c3)OC(F)(F)C(F)(F)O4)c2)c(C)c1Cl [Int-005, 3-(4-Chloro-3,5-dimethyl-pyrazol-1-yl)-N-(2,2,3,3-tetrafluoro-1,4-benzodioxin-6-yl)benzamide] | > 2 µM
COc1ccc(N(C)C(=O)c2cccc(-n3nc(C)c(Cl)c3C)c2)cc1OC [compound 014, 3-(4-Chloro-3,5-dimethyl-pyrazol-1-yl)-N-(3,4-dimethoxyphenyl)-N-methyl-benzamide] | > 2 µM
Cc1cc(C(=O)O)nn1-c1cccc(C(=O)N(C)c2ccc3c(c2)OCO3)c1 [compound 066, 1-[3-[1,3-Benzodioxol-5-yl(methyl)carbamoyl]phenyl]-5-methyl-pyrazole-3-carboxylic acid] | > 2 µM
CCOC(=O)c1cccc(OCc2c(Cl)c(C)nn2-c2cccc(C(=O)N(C)c3ccc4c(c3)OCO4)c2)c1 [compound 140, Ethyl 3-[[2-[3-[1,3-benzodioxol-5-yl(methyl)carbamoyl]phenyl]-4-chloro-5-methyl-pyrazol-3-yl]methoxy]benzoate] | < 1 µM
Cc1nn(-c2cccc(C(=O)N(C)c3ccc4c(c3)OCO4)c2)c(C)c1Cl [compound 015, N-(1,3-Benzodioxol-5-yl)-3-(4-chloro-3,5-dimethyl-pyrazol-1-yl)-N-methyl-benzamide] | < 1 µM
CN(C(=O)c1cccc(-n2nc(C(F)(F)F)cc2OCC2(C(=O)O)CC2)c1)c1ccc2c(c1)OC(F)(F)O2 [compound 265, 1-[[2-[3-[(2,2-Difluoro-1,3-benzodioxol-5-yl)-methyl-carbamoyl]phenyl]-5-(trifluoromethyl)pyrazol-3-yl]oxymethyl]cyclopropanecarboxylic acid] | > 2 µM
Cc1nn(-c2cccc(C(=O)N(C)c3ccc4c(c3)OCO4)c2)c(C(=O)c2ccccc2)c1Cl [compound 119, N-(1,3-benzodioxol-5-yl)-3-(5-benzoyl-4-chloro-3-methyl-pyrazol-1-yl)-N-methyl-benzamide] | < 1 µM
Cc1nn(-c2cccc(C(=O)N(C)c3ccc4c(c3)OCO4)c2)c(C(F)(F)F)c1Cl [compound 102, N-(1,3-Benzodioxol-5-yl)-3-[4-chloro-3-methyl-5-(trifluoromethyl)pyrazol-1-yl]-N-methyl-benzamide] | < 1 µM
CN(C(=O)c1cccc(-n2nc(C(F)(F)F)c(Cl)c2OCc2ccc(C(=O)O)cc2)c1)c1ccc2c(c1)OCO2 [compound 159, 4-[[2-[3-[1,3-Benzodioxol-5-yl(methyl)carbamoyl]phenyl]-4-chloro-5-(trifluoromethyl)pyrazol-3-yl]oxymethyl]benzoic acid] | < 1 µM
Cc1nn(-c2cccc(C(=O)N(C)c3ccc4c(c3)COC4)c2)c(C)c1Cl [compound 057] | 1 to 2 µM
Cc1nn(-c2cccc(C(=O)Nc3ccc4c(c3)CCCC4)c2)c(C)c1Cl [Int-040] | > 2 µM
[2H]C([2H])([2H])N(C(=O)c1cccc(-n2nc(C(F)(F)F)c(Cl)c2C2CC2)c1)c1ccc2nc(C)oc2c1 [compound 138, 3-[4-Chloro-5-cyclopropyl-3-(trifluoromethyl)pyrazol-1-yl]-N-(2-methyl-1,3-benzoxazol-6-yl)-N-(trideuteriomethyl)benzamide] | < 1 µM
Cc1nn(-c2cccc(C(=O)N(C)c3ccc4c(c3)CCC4)c2)c(C)c1Cl [compound 023, 3-(4-chloro-3,5-dimethyl-pyrazol-1-yl)-N-indan-5-yl-N-methyl-benzamide] | < 1 µM
Cc1cc(C(F)(F)F)n(-c2cc(C(=O)N(C)c3ccc4c(c3)OCO4)ccn2)n1 [compound 169, N-(1,3-Benzodioxol-5-yl)-N-methyl-2-[3-methyl-5-(trifluoromethyl)pyrazol-1-yl]pyridine-4-carboxamide] | > 2 µM
Cc1c(Cl)c(C(F)(F)F)nn1-c1cccc(C(=O)N(C)c2ccc3c(c2)OCCO3)c1 [compound 096, 3-[4-Chloro-5-methyl-3-(trifluoromethyl)pyrazol-1-yl]-N-(2,3-dihydro-1,4-benzodioxin-6-yl)-N-methyl-benzamide] | < 1 µM
CN(C(=O)c1cccc(-n2nc(C(F)F)c(C#N)c2COc2ccc(C(=O)O)cc2)c1)c1ccc2c(c1)OC(F)(F)O2 [compound 268, 4-[[4-cyano-2-[3-[(2,2-difluoro-1,3-benzodioxol-5-yl)-methyl-carbamoyl]phenyl]-5-(difluoromethyl)pyrazol-3-yl]methoxy]benzoic acid] | < 1 µM
